The text below walks through data of US9856274B2, “Substituted pyrazolo[1,5-a]pyridines as PDE-10 inhibitors” (Sunovion Pharmaceuticals Inc., priority 2011, dated 2018).

In general, IC50 refers to the concentration that gives 50% inhibition.

The target of the experiment is recombinant human PDE-10 enzyme (Homo sapiens (Human), UniProt Q9Y233). The experiment can be described thus: Human PDE-10 inhibition enzyme assay (IMAP PDE Fluorescence Polarization). Type of experiment: biochemical. Particulars: recombinant human PDE-10 expressed in baculoviral system; Fluorescein-labeled cAMP/cGMP substrate; 40-minute incubation at 37° C. How it is done: In one embodiment, the compounds provided herein were assayed for their ability to inhibit human PDE-10A. In one embodiment, the activities of the compounds were determined using the Molecular Devices IMAP PDE Fluorescence Polarization assay using recombinant human PDE-10 enzyme expressed in a baculoviral system. Briefly, 10 μL of a compound (0.2 nM-20 μM) was added to either a 96-well half area black plate or a 384-well black plate along with 10 μL of Fluorescein-labeled cAMP/cGMP substrate as per manufacturer's instructions and 10 μL of PDE enzyme (activity 0.1 U). Following a 40-minute incubation at 37° C., 60 μL of IMAP binding reagent was added. The plate was then read on a Perkin Elmer Victor (480-535 nm). The data was analyzed using Prism Software (GraphPad Inc, San Diego, Calif.).
Chain of recombinant human PDE-10 enzyme (Q9Y233 whole entry): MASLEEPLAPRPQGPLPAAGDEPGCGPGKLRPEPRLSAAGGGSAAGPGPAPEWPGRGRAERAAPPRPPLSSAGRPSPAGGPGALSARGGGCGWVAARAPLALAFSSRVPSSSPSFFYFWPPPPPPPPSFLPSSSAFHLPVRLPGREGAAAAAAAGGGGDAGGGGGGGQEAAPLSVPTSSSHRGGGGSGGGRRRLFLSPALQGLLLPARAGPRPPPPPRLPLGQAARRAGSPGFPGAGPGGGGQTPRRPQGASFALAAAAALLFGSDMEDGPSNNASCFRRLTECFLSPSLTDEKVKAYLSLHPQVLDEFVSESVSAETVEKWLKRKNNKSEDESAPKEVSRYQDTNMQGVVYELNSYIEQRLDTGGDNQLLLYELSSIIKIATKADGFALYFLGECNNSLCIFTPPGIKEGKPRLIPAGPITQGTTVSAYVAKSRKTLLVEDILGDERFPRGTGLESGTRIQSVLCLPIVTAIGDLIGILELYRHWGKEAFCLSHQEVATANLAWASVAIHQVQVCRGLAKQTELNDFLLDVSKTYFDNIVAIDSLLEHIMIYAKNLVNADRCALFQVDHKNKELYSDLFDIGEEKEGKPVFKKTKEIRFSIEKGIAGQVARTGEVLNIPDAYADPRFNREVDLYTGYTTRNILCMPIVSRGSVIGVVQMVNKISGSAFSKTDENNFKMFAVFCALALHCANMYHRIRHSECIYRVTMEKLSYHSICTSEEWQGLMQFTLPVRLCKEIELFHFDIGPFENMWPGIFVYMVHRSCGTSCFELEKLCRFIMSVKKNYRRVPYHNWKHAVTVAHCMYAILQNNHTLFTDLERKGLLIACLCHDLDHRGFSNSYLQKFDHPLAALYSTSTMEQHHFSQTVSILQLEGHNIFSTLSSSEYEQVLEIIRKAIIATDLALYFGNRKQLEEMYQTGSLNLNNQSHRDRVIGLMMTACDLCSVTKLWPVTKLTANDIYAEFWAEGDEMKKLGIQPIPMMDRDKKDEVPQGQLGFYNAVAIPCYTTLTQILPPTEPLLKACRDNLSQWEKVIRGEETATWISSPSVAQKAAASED
(Fluorescence polarisation rises when a labelled molecule tumbles more slowly, as on binding a larger partner.)

For the molecule `Cc1ncc(C)n2nc(CCc3cn4ccccc4n3)nc12` [Compound 1], the IC50 lay within 10 to 100 nM.

As to `Cc1ncc(C)n2nc(CCc3nc4ccccn4n3)nc12` [Compound 3], the IC50 is over 500 nM.

With `Cn1c(CCc2nc3ccccc3o2)nc2c3cccnc3ccc21` [Compound 4], the IC50 fell in the range of 100 to 500 nM.

`Cn1c(CCc2nc3ccccn3n2)nc2c3cccnc3ccc21` [Compound 5]: the IC50 was in the range of 10 to 100 nM.

Regarding `Cc1ncc(C)n2nc(CCc3nc4c5cccnc5ccc4n3C)nc12` [Compound 6], the IC50 was at most 10 nM.

Take `Cc1ncc(C)n2nc(CCc3nc4c5cccnc5sc4n3C)nc12` [Compound 7]: the 50% inhibitory concentration (IC50) is at most 10 nM.

Turning to `Cc1cccc2nc(CCc3nc4c5cccnc5ccc4n3C)nn12` [Compound 8], the IC50 is at most 10 nM.

Regarding `Cc1cccn2nc(CCc3nc4c5cccnc5ccc4n3C)nc12` [Compound 9], the IC50 is at most 10 nM.

For `Cc1cnc(C)n2nc(CCc3nc4c5cccnc5ccc4n3C)nc12` [Compound 10], the 50% inhibitory concentration (IC50) was 10 to 100 nM.

Turning to `Cc1ccc(C)n2nc(CCc3nc4c5cccnc5ccc4n3C)nc12` [Compound 11], the IC50 was at most 10 nM.

As to `Cc1ncc(C)n2nc(CCc3nc4ccc5ncccc5n4n3)nc12` [Compound 12], the IC50 is 100 to 500 nM.

Consider `Cc1ncc(C)n2nc(CCc3nc4c5cccnc5ccn4n3)nc12` [Compound 13], for which the IC50 fell in the range of 10 to 100 nM.

Regarding `Cc1cccc2nc(CCc3nc4c5cccnc5ccn4n3)nn12` [Compound 14], the IC50 was in the range of 10 to 100 nM.

In the case of `c1cnc2ccn3nc(CCc4nc5ccccn5n4)nc3c2c1` [Compound 15], the IC50 was over 500 nM.

In the case of `Cc1ccc(C)n2nc(CCc3nc4c5cccnc5ccn4n3)nc12` [Compound 16], the IC50 was at most 10 nM.

Turning to `Cc1cc(C)n2nc(CCc3nc4c5cccnc5ccn4n3)nc2n1` [Compound 17], the IC50 fell in the range of 10 to 100 nM.

As for `Cc1ncc(C)n2nc(CCc3nc4c5ncccc5ccc4n3C)nc12` [Compound 18], the IC50 is at most 10 nM.

With `Cc1ncc(C)n2nc(CCc3nc4c5nccnc5ccc4n3C)nc12` [Compound 19], the IC50 is at most 10 nM.

On to `Cn1c(CCc2nc3ccccn3n2)nc2c3ncccc3ccc21` [Compound 20], for which the IC50 is 100 to 500 nM.

Take `Cn1c(CCc2nc3ccccn3n2)nc2c3nccnc3ccc21` [Compound 21]: the IC50 lay in the range of 100 to 500 nM.

For the molecule `c1cnc2c(c1)ccn1nc(CCc3nc4ccccn4n3)nc21` [Compound 22], the IC50 was over 500 nM.

Turning to `Cc1cccc2nc(CCc3nc4n(n3)CCc3ncccc3-4)nn12` [Compound 23, 2-(2-(5-Methyl-[1,2,4]triazolo[1,5-a]pyridin-2-yl)ethyl)-5,6-dihydro-[1,2,4]triazolo[5,1-f][1,6]naphthyridine], the IC50 was over 500 nM.

Take `Cc1ncc(C)n2nc(CCc3nc4c5cccnc5ccc4n3C)cc12` [Compound 24]: the IC50 was at most 10 nM.

In the case of `Cc1ncc(C)n2cc(CCc3nc4c5cccnc5ccc4n3C)nc12` [Compound 25], the IC50 was in the range of 10 to 100 nM.

Regarding `Cn1c(CCc2cn3ccccc3n2)nc2c3cccnc3ccc21` [Compound 26], the IC50 was over 500 nM.

Consider `Cc1ncc(C)n2cc(CCc3nc4c5cccnc5ccn4n3)nc12` [Compound 27], for which the IC50 is 10 to 100 nM.

On to `Cc1ncc(C)n2nc(CCc3nc4c(ccc5ncccc54)[nH]3)cc12` [Compound 28], for which the IC50 lay within 10 to 100 nM.

Turning to `Cc1ncc(C)n2nc(C(C)Cc3nc4c5cccnc5ccc4n3C)nc12` (centres unmarked) [Compound 29], the half-inhibitory concentration (IC50) is at most 10 nM.

For `Cc1ncc(C)n2nc(CC(C)c3nc4c5cccnc5ccc4n3C)nc12` (centres unmarked) [Compound 30], the IC50 lay within 10 to 100 nM.

As for `Cn1c(CCc2cn3ccncc3n2)nc2c3cccnc3ccc21` [Compound 31], the IC50 is over 500 nM.

`Cc1ccc(C)n2cc(CCc3nc4c5cccnc5ccc4n3C)nc12` [Compound 32]: the IC50 lay within 10 to 100 nM.

In the case of `Cc1ccc(Cl)c2cc(CCc3nc4c5cccnc5ccc4n3C)nn12` [Compound 33], the 50% inhibitory concentration (IC50) was at most 10 nM.

Take `Cc1ccc(C)n2cc(CCc3nc4c5cccnc5ccn4n3)nc12` [Compound 34]: the half-maximal inhibitory concentration (IC50) was in the range of 100 to 500 nM.

With `Cc1ncc(C)n2nc(CCc3nc4c5cccnc5ccn4n3)cc12` [Compound 35], the half-inhibitory concentration (IC50) lay in the range of 10 to 100 nM.

As to `Cc1ncc(C)n2nc(CCc3nc4c(ccc5ncccc54)[nH]3)nc12` [Compound 36], the IC50 was at most 10 nM.

With `Cc1ncc(C)n2nc(CCc3nc4c5c(ccc4n3C)CCCC5)nc12` [Compound 37], the concentration for half-maximal inhibition (IC50) was at most 10 nM.

Regarding `Cc1ncc(C)n2nc(CCc3nc4c5c(ccn4c3C)CCCC5)nc12` [Compound 38], the IC50 is at most 10 nM.

Consider `Cc1ncc(C)n2nc(CCc3nc4c5cccnc5ccn4c3C)nc12` [Compound 39], for which the IC50 is at most 10 nM.

On to `Cc1c(CCc2nc3c(F)ccc(C)n3n2)nc2c3cccnc3ccn12` [Compound 40], for which the IC50 is at most 10 nM.

`Cc1ncc(C)n2nc(CCc3nc4c5c(ccn4c3C)NCCO5)nc12` [Compound 41]: the IC50 was in the range of 10 to 100 nM.

Consider `Cc1ncc(C)n2nc(CCc3nc4c5c(ccc4n3C)OCCO5)nc12` [Compound 42], for which the IC50 is at most 10 nM.
